# According to patent US9212391B2, “Method for determining DNA fragmentation in microorganisms” (Universidad Autonoma de Madrid, priority 2006, dated 2015):
# Entries after “also recorded” stand apart in the source; their conditions may differ. Like-named read-outs stand apart in the source and are kept apart here.
# Key:
# [1] = tested on: Escherichia coli strain TG1 (sensitive strain); conditions: for Vital Stain Empty Capsules, Sensitive Strain: 40 minutes
# [2] = tested on: Escherichia coli strain TG1 (sensitive strain); assay: DNA fragmentation / DNA damage level by the process of the invention (microgel, lysis, SYBR Gold); conditions: for DNA damage (in words): 300 micrograms/ml
# [3] = tested on: Escherichia coli strain sensitive (TG1); assay: Growth inhibition MIC (commercial test), sensitive strain; type: cell-based; conditions: read-out: minimum inhibitory concentration (MIC) of growth
# [4] = tested on: Escherichia coli strain resistant to ciprofloxacin; assay: Growth inhibition MIC (commercial test), resistant strain; type: cell-based; conditions: maximum concentration of the commercial test
# [5] = tested on: Escherichia coli strain resistant to ciprofloxacin; conditions: 40 minutes, LB medium
# [6] = 300 μg/ml, 40 min, exponential phase in LB medium
molecule,measurement,setting,value
"CC1(C)S[C@@H]2[C@H](NC(=O)[C@H](N)c3ccccc3)C(=O)N2[C@H]1C(=O)O [Ampicillin, ampicillin]",Vital Stain Empty Capsules,[1]; [6],5.00%
same,Vital Stain Empty Capsules,"[1]; 300 micrograms/ml, 20 minutes",0.67%
same,Vital Stain Empty Capsules,"[1]; 300 micrograms/ml, 24 hours",75.97%
same,DNA Fragmentation (percentage of bacteria with fragmented DNA),[2]; [6],4.20%
same,DNA damage (in words),[2]; 20 minutes,differences were not observed with respect to the control; also recorded: DNA fragments are not observed
same,DNA damage (in words),[2]; 24 hours,massive presence of punctiform degraded DNA fragments; also recorded: the bottom is covered with DNA fragments
"O=C(O)c1cn(C2CC2)c2cc(N3CCNCC3)c(F)cc2c1=O [Ciprofloxacin, ciprofloxacin]",MIC,[3],0.012 µg/mL
same,MIC,[4],> 32 µg/mL
same,"Vital Stain Empty Capsules, Resistant Strain",[5]; 0.50 μg/ml,0.00%
same,"Vital Stain Empty Capsules, Resistant Strain",[5]; 1.00 μg/ml,0.10%
same,"Vital Stain Empty Capsules, Resistant Strain",[5]; 2.50 μg/ml,0.10%
same,"Vital Stain Empty Capsules, Resistant Strain",[5]; 10.00 μg/ml,0.15%
same,"Vital Stain Empty Capsules, Sensitive Strain","[1]; 0.003 μg/ml, exponential growth in LB medium",0.70%
same,"Vital Stain Empty Capsules, Sensitive Strain","[1]; 0.006 μg/ml, exponential growth in LB medium",0.76%
same,"Vital Stain Empty Capsules, Sensitive Strain","[1]; 0.012 μg/ml, exponential growth in LB medium",1.06%
same,"Vital Stain Empty Capsules, Sensitive Strain","[1]; 0.100 μg/ml, exponential growth in LB medium",1.40%
same,"Vital Stain Empty Capsules, Sensitive Strain","[1]; 0.50 μg/ml, LB medium",0.05%
same,"Vital Stain Empty Capsules, Sensitive Strain","[1]; 1.00 μg/ml, LB medium",0.00%
same,"Vital Stain Empty Capsules, Sensitive Strain","[1]; 2.50 μg/ml, LB medium",0.15%
same,"Vital Stain Empty Capsules, Sensitive Strain","[1]; 10.00 μg/ml, LB medium",0.48%
same,Vital Stain Empty Capsules,"[1]; 25 μg/ml, 40 min",0.30%
same,minimum incubation time at which evident DNA damage was detected,[2]; 1 μg/ml,5 min
same,DNA Fragmentation (percentage of bacteria with fragmented DNA),"[2]; 25 μg/ml, 40 min",100.00%
same,DNA damage level,"[2]; 0.006 micrograms/ml, 40 minutes",intermediate between level 1 and 2
same,minimum time of incubation to detect a minimal effect at DNA level (incl. […] processing),[2]; 1 microgram/ml,6.5 min
same,DNA damage level,"[2]; 10 micrograms/ml for 40 minutes, immediately after the treatment (0 min after wash)",3-4
same,size of the bacterial capsules versus the other assayed times,"[2]; 10 micrograms/ml for 40 minutes, then 60 and 90 minutes in ciprofloxacin-free medium, image analysis",increases about double
same,time in antibiotic-free medium at which a statistically significant decrease of the fragment diffusion halo begins to be detected,"[2]; 10 micrograms/ml for 40 minutes, then washed, image analysis, p<0.05",15 min
"OO [H2O2, hydrogen peroxide]",Vital Stain Empty Capsules,"[1]; 10 mM, 10 min",0.30%
same,Vital Stain Permeable,"[1]; 10 mM, 10 min",5.00%
same,DNA Fragmentation (percentage of bacteria with fragmented DNA),"[2]; 10 mM, 10 min",100.00%
same,DNA fragmentation (in words),"[2]; 10 mM, 10 minutes",massive Escherichia coli DNA fragmentation
gentamicin,Vital Stain Empty Capsules,[1]; [6],0.50%
same,Vital Stain Permeable,[1]; [6],10.00%
same,DNA Fragmentation (percentage of bacteria with fragmented DNA),[2]; [6],3.70%
